Experimental data published in US20220395458A1, “PREVENTION OF VISIBLE PARTICLE FORMATION IN AQUEOUS PROTEIN SOLUTIONS” (Hoffmann-La Roche Inc., priority 2019, published 2022).
Values after ≈ are worked out from the molar mass of the structure shown.

Experiments:
[1] = in water at room temperature; cited from earlier work
[2] = Visible particles by Seidenader after spiking FFA to inorganic salt solutions; format: physicochemical; details: for Visible particles in Seidenader: dependent on salt concentration over time, much lesser extent than CaCl2 and NaAlO2; for Visible particles Seidenader d0 / Visible particles Seidenader d2 / Visible particles Seidenader d7 / Visible particles Seidenader d1: FFA below solubility limit; for Visible particles Seidenader d0: d0 directly after spiking
Method: Del.) at 100 rpm at 25° C., for 1 hour. […] FFA concentrations were verified for selected by LC-MS samples acc. Honemann et al.^7
[…] NaCl, NaAlO2. NaBO2. B2O3, and CaCl2 (Sigma-Aldrich/Merck. Darmstadt. Del.) were selected as their dissolution products (ions) represent typical glass leachables from Type I borosilicate glass. The pH of the NaAlO2 and NaBO2 stock solutions was adjusted to pH 6 using HCl and subsequently filtered using 0.22 μm PVDF Sterivex filters (Merck Millipore. Darmstadt. Del.) and true elemental concentrations were determined by inductively-coupled plasma mass spectrometry (ICP-MS). […] Spiking experiments with FFA were performed in duplicates.
Samples were analyzed by visual inspection on a Seidenader V 90-T instrument (Seidenader Maschinenbau GmbH. Markt Schwaben. Del.) as previously described by Ditter et al.^9 and using a black/white panel according Ph. Eur. 2.9.20.^10 and classified as Many particles (>7). Few particles (4-7), or Practically free of particles (0-4) in E/P box, and Many particles (>10). Few particles (6-10). Essentially free of particles (1-5), or Free of particles (0) by Seidenader.
(§1) pH of all solutions was verified. Samples were visually inspected immediately after spiking and regularly for up to 7 days. Further characterization by HIAC, turbidity, FTIR, and SEM-EDX was performed on day 1 only. All samples were analyzed when equilibrated to room temperature (4 h).
Different inorganic salt solutions, i.e. CaCl2. NaAlO2. NaBO2. B2O3, and NaCl, were prepared simulating artificial glass leachables. Myristic and lauric acid, as main degradation product from hydrolytic PS20 degradation, were added at concentrations below their solubility limit and samples were analyzed for visible particles. SVP, and turbidity. Samples were compared against relevant controls and the pH verified at pH 6.

[3] = Particle identification by FTIR; format: physicochemical; details: particle identification d1
Method: Particles >20 μm were further identified by Fourier transformed infrared spectroscopy (FTTIR) using a Nicolet™ iNTM10 Infrared Microscope (Thermo Fisher Scientific) by comparison to reference spectra. Samples were filtrated under laminar air flow through gold-coated polycarbonate filters (pore size 0.8 μm, diameter 13 mm, Sterlitech). Filter conditioning included few droplets of ethanol followed by 1 mL of particle-free water. After filtration of the samples, ˜1 mL of cooled particle-free water was used as a final washing step before analysis.
as §1
Glass leachables were generated from different types of glass vials, e.g. Exp33 and Exp51 vials, with different matrix solutions including WFI, a glycine solution adjusted to pH 6, and a placebo solution representative for a mAb formulation. Defined amounts of myristic and lauric acid below their solubility limit were added to the solutions/mixtures of glass leachables and analyzed. Visible particles in Seidenader are summarized in Table 3 and were detected for all samples in contrast to various controls. Particle formation was dependent on the glass leachable solution and dependent on incubation time. […] An example for the dependency of particle formation on incubation time is provided in Table 3 for myristic acid in glass leachable solution from Exp51 vials/glycine solution. The example highlights the kinetics of particle formation with no particles directly after spiking and more than 10 particles at incubation day 5 and 7. For selected samples, particles were further characterized and identified by FTIR confirming the presence of free fatty acids. FFA were not confirmed by FTIR for glass leachable solutions generated with WFI, which is linked to the time point of FTIR analysis at d1 and the late onset of particle formation for these samples. Placebo samples were not analyzed further by FTIR as the positive control was found negative attributed to the presence of additional 0.02% PS20, potentially solubilizing the FFA seeds. Characterization of the particles by SEM-EDX confirmed the presence of glass leachables, like Aluminium or silicon on the surface of the FFA particles. […] The spiking study highlights that mixtures of ‘real’ glass leachables lead to precipitation of FFA and particle formation in the visible range dependent on mixture and amount of glass leachables as well as dependent on incubation time, […]

[4] = CaCl2 250 μg/mL (Ca2+ 90 μg/mL)
[5] = CaCl2 500 μg/mL (Ca2+ 180 μg/mL)
[6] = CaCl2 1000 μg/mL (Ca2+ 360 μg/mL)
[7] = NaAlO2 nominal 250 μg/mL (0.012 μg/mL ion)
[8] = NaAlO2 nominal 500 μg/mL (0.024 μg/mL ion)
[9] = NaAlO2 nominal 1000 μg/mL (0.048 μg/mL ion)

Structure (SMILES)	solubility level [1] [µg/mL]	Visible particles in Seidenader ([2]; B2O3 solution)	Visible particles Seidenader d0 [2, 4]	Visible particles Seidenader d2 [2, 4]	Visible particles Seidenader d7 [2, 4]	Visible particles Seidenader d0 [2, 5]	Visible particles Seidenader d2 [2, 5]	Visible particles Seidenader d7 [2, 5]	Visible particles Seidenader d2 [2, 6]	Visible particles Seidenader d1 [2, 7]	Visible particles Seidenader d2 [2, 7]	Visible particles Seidenader d7 [2, 9]	Visible particles in Seidenader ([2]; NaBO2 solution)	FTIR ([3]; Exp51 vials, 3xTS Glycine pH 6)	further results
CCCCCCCCCCCC(=O)O [Lauric acid, lauric acid]	15 (≈ 74.9 µM)	visible particles were obtained	/ (Free of particles (0, /) by Seidenader)	xxx (Many particles (>10, xxx))	xxx (Many particles (>10, xxx))	/ (Free of particles (0, /) by Seidenader)	xxx (Many particles (>10, xxx))	xxx (Many particles (>10, xxx))	xxx (Many particles (>10, xxx))	x (Essentially free of particles (1-5, x))	x (Essentially free of particles (1-5, x))	xxx (Many particles (>10, xxx))	visible particles were obtained	FFA	Visible particles Seidenader d0 [2, 7]: / (Free of particles (0, /) by Seidenader); Visible particles Seidenader d0 [2, 8]: x (Essentially free of particles (1-5, x)); Visible particles Seidenader d1 [2, 8]: x (Essentially free of particles (1-5, x)); Visible particles Seidenader d1 [2, 9]: x (Essentially free of particles (1-5, x)); FTIR ([3]; Exp33 vials, 3xTS WFI): FFA
CCCCCCCCCCCCCC(=O)O [Myristic acid, myristic acid]	7 (≈ 30.7 µM)	visible particles were obtained	xxx (Many particles (>10, xxx))	xxx (Many particles (>10, xxx))	xxx (Many particles (>10, xxx))	xxx (Many particles (>10, xxx))	xxx (Many particles (>10, xxx))	xxx (Many particles (>10, xxx))	xxx (Many particles (>10, xxx))	x (Essentially free of particles (1-5, x))	x (Essentially free of particles (1-5, x))	xxx (Many particles (>10, xxx))	visible particles were obtained	FFA	Visible particles Seidenader d1 [2, 4]: xxx (Many particles (>10, xxx)); Visible particles Seidenader d1 [2, 5]: xxx (Many particles (>10, xxx)); Visible particles Seidenader d0 [2, 6]: xxx (Many particles (>10, xxx)); Visible particles Seidenader d1 [2, 6]: xxx (Many particles (>10, xxx)); Visible particles Seidenader d7 [2, 6]: xxx (Many particles (>10, xxx)); Visible particles Seidenader d7 [2, 7]: xxx (Many particles (>10, xxx)); Visible particles Seidenader d2 [2, 8]: x (Essentially free of particles (1-5, x)); Visible particles Seidenader d7 [2, 8]: xxx (Many particles (>10, xxx)); Visible particles Seidenader d0 [2, 9]: x (Essentially free of particles (1-5, x)); FTIR ([3]; Exp33 vials, 3xTS Glycine pH 6): FFA
